Measured values taken from patent US7576125B2, “Melanogenesis inhibitor and skin preparation containing the same” (Takasago International Corporation, priority 2003, dated 2009).

How the values were obtained:
Type in all cases: cell-based
B16 melanoma cells [1] = test: Melanogenesis inhibition test (visual evaluation) using B16 melanoma cells; conditions: 3 days culture
Procedure: The following tests a) and b) were conducted on the compounds shown in Synthesis Examples and Comparative Synthesis Examples to examine their melanogenesis-inhibiting effects. • a) Cytotoxicity test (using B16 melonoma cells) • b) Melanogenesis inhibition test (visual evaluation) (using B16 melonoma cells) Evaluation Methods
8×10^4 B16 melanoma cells were inoculated in a plastic-made culture flask (25 cm^2). The cells were cultured in a 10% serum-containing DMEN medium (produced by Nissui Pharmaceutical co., Ltd., trade name) in the presence of 5% carbon dioxide at 37° C. 3 days later, a test sample diluted with ethanol was added thereto, and culture was conducted for 3 days. After the completion of the culture, the medium was removed and the flask contents were washed with a phosphate buffer solution (hereinafter referred t as PBS). The cells were peeled from the flask inner wall using a medium containing trypsin and EDTA (ethylenediaminetetraacetic acid). The resulting cells suspension was centrifuged to recover cells. Part of the cells was taken and the number of cells was measured using a Coulter counter. […] A melanogenesis inhibition test was carried out in this concentration range. The cells obtained were washed once with PBS and then the whiteness of the precipitate was rated visually based on the following evaluation standard.
Evaluation Standard • −: Same as the solvent control (black) • +−: Slightly different from the solvent control (black-gray) • +: Clearly different from the solvent control (gray) • ++: Coloring of cells is very low (gray-white) • +++: No coloring of cells (white)

[2] = tested on: tyrosinase biosynthesis in B16 melanoma cells; test: Tyrosinase biosynthesis hindrance test (intra-cell tyrosinase activity); conditions: 2 days
Procedure: A tyrosinase activity hindrance test and a tyrosinase biosynthesis hindrance test were conducted according to the following test methods to examine the mechanism for hindrance of melanin denovo synthesis. […] In this method, tyrosinase biosynthesis hindrance is indicated indirectly by measuring intra-cell tyrosinase activity. 100 μl of a suspension containing 3×10^5/ml of B16 melanoma cells was inoculated into a 96-well plate, and culture was made at 37° C. overnight in 5% CO2. Next day, the medium was changed with 200 μl of a sample-containing culture medium, and culture was made for 2 days under the same conditions. Thereafter, the supernatant liquid was removed and the residue was washed with 200 μl of a phosphate buffer solution twice. Then, 100 μl of 1% Triton X100 was added and the mixture was allowed to stand at room temperature for 1 hour, followed by gentle shaking. Next, 100 μl of 1% DOPA was added. Measurement was made in the same manner as in the above test method for tyrosinase activity hindrance.

B16 melanoma cells [3] = test: Cell propagation rate / cytotoxicity by MTT method on parallel plate

Compound | whiteness of the cell precipitate rated visually (melanogenesis inhibition) (B16 melanoma cells [1]; Concentration 12.5 μg/ml) | also measured
CCCCOCc1ccc2c(c1)OCO2 [Synthesis Example 2, piperonyl n-butyl ether] | ++ | 
COCc1ccc2c(c1)OCO2 [Synthesis Example 3, Piperonyl methyl ether] | − | 
CCOCc1ccc2c(c1)OCO2 [Synthesis Example 4, Piperonyl ethyl ether] | − | 
CCCOCc1ccc2c(c1)OCO2 [Synthesis Example 5, Piperonyl n-propyl ether] | + | 
CC(C)COCc1ccc2c(c1)OCO2 [Synthesis Example 6, Piperonyl isobutyl ether] | ++ | 
CC(C)CCOCc1ccc2c(c1)OCO2 [Synthesis Example 7, Piperonyl isoamyl ether] | ++ | 
CCCCCCOCc1ccc2c(c1)OCO2 [Synthesis Example 8, Piperonyl n-hexyl ether] | ++ | 
CCCCCCCCOCc1ccc2c(c1)OCO2 [Synthesis Example 9, Piperonyl n-octyl ether] | + | whiteness of the cell precipitate rated visually (melanogenesis inhibition) (B16 melanoma cells [1]; Concentration 6.3 μg/ml): +
O=c1cc(CO)occ1O [kojic acid] |  | Tyrosinase biosynthesis hindrance, Hindrance % ([2]; 50 ppm): 21.0%; Tyrosinase biosynthesis hindrance, Hindrance % ([2]; 100 ppm): 21.0%; Tyrosinase biosynthesis hindrance, Hindrance % ([2]; 200 ppm): 21.0%; Cell propagation rate % (B16 melanoma cells [3]; 50 ppm): 100.8%; Cell propagation rate % (B16 melanoma cells [3]; 100 ppm): 97.3%; Cell propagation rate % (B16 melanoma cells [3]; 200 ppm): 96.2%
